For one data set, the target named is JAK1 (h) (Homo sapiens (Human), UniProt P23458). Description: JAK1 kinase assay (33P-ATP filter binding, Millipore). It counts as biochemical. The protocol:
(§1) Kinase assays can be performed by measurement of incorporation of γ-^33P ATP into immobilized myelin basic protein (MBP). High binding white 384 well plates (Greiner) are coated with MBP (Sigma #M−1891) by incubation of 60 μL/well of 20 μg/mL MBP in Tris-buffered saline (TBS; 50 mM Tris pH 8.0, 138 mM NaCl, 2.7 mM KCl) for 24 h at 4° C. Plates are washed 3× with 100 μL TBS. Kinase reactions are carried out in a total volume of 34 μL in kinase buffer (5 mM Hepes pH 7.6, 15 mM NaCl, 0.01% bovine gamma globulin (Sigma #I-5506), 10 mM MgCl2, 1 mM DTT, 0.02% TritonX-100). Compound dilutions are performed in DMSO and added to assay wells to a final DMSO concentration of 1%. Each data point is measured in duplicate, and at least two duplicate assays are performed for each individual compound determination. Enzyme is added to final concentrations of 10 nM or 20 nM, for example. A mixture of unlabeled ATP and γ-^33P ATP is added to start the reaction (2×10^6 cpm of γ-^33P ATP per well (3000 Ci/mmole) and 10 μM unlabeled ATP, typically. The reactions are carried out for 1 h at room temperature with shaking. Plates are washed 7× with TBS, followed by the addition of 50 μL/well scintillation fluid (Wallac). Plates are read using a Wallac Trilux counter. This is only one format of such assays; various other formats are possible, as known to one skilled in the art.
(§2) The above assay procedure can be used to determine the IC50 for inhibition and/or the inhibition constant, Ki. The IC50 is defined as the concentration of compound required to reduce the enzyme activity by 50% under the condition of the assay. The IC50 value is estimated by preparing a 10 point curve using a 1/2 log dilution series (for example, a typical curve may be prepared using the following compound concentrations: 3 μM, 1 μM, 0.3 μM, 0.1 μM, 0.03 μM, 0.01 μM, 0.003 μM, 0.001 μM, 0.0003 μM and 0 μM).
(§3) The kinase assays described herein were performed at Millipore UK Ltd, Dundee Technology Park, Dundee DD2 1SW, UK.

The target of the next data set is JAK2 (h) (Homo sapiens (Human), UniProt O60674). Description: JAK2 kinase assay (33P-ATP filter binding, Millipore). It counts as biochemical. The protocol:
as §1, §2, §3

A short description of data set [1]: Compound stability in human liver microsomes. It counts as in vitro ADME. The conditions noted are these: for half-life at 5 μM: compound 5 μM, NADPH 1.0 mM, 37° C.; for CLint scaled at 5 μM: in vivo CLint extrapolated. The protocol: (§4) Human or rat liver microsomes incubations were conducted in duplicate in polypropylene tubes. The typical incubation mixtures consisted of human or rat liver microsomes (0.5 mg protein/mL), compounds of interest (5 μM) and NADPH (1.0 mM) in a total volume of 200 μL potassium phosphate buffer (PBS, 100 mM, pH 7.4). Compounds were dissolved in DMSO and diluted with PBS such that the final concentration of DMSO was 0.05%. The enzymatic reactions were commenced with the addition of protein after a 3-min preincubation and incubated in a water bath open to the air at 37° C. Reactions were terminated at various time points (0, 5, 10, 15, 30, 60 min) by adding equal volume of ice-cold acetonitrile. The samples were stored at −80° C. until LC/MS/MS assays.
(§5) The concentrations of compounds in the incubation mixtures of human or rat liver microsomes were determined by a LC/MS/MS method. The ranges of the linearity in the concentration range were determined for each tested compounds.
(§6) A parallel incubation was performed using denatured microsomes as the negative control, and reactions were terminated at various time points (0, 15, 60 min) after incubation at 37° C.
(§7) Dextromethorphan (70 μM) was selected as the positive control, and reactions were terminated at various time points (0, 5, 10, 15, 30, 60 min) after incubation at 37° C. Both positive and negative control samples were included in each assay to ensure the integrity of the microsomal incubation system.
(§8) The concentrations of compounds in human or rat liver microsome incubations were plotted as a percentage of the relevant zero time point control for each reaction. The in vivo CLint were extrapolated (ref.: Naritomi, Y.; Terashita, S.; Kimura, S.; Suzuki, A.; Kagayama, A.; and Sugiyama, Y.; Prediction of human hepatic clearance from in vivo animal experiments and in vitro metabolic studies with liver microsomes from animals and humans. Drug Metab. Dispos., 2001, 29: 1316-1324).

Data set [2] can be described thus: Compound stability in rat liver microsomes. It counts as in vitro ADME. The conditions noted are these: for half-life at 5 μM: compound 5 μM, NADPH 1.0 mM, 37° C.; for CLint scaled at 5 μM: in vivo CLint extrapolated. The protocol: as §4, §5, §6, §7, §8
Data set [3] can be described thus: Pharmacokinetics after intravenous and oral administration in rats. It counts as in vivo. The conditions noted are these: for Clearance (CL) after iv dosing / AUC(0-t) / half-life / Vd: dose 1 mg/kg (Ex. 27: 0.72 mg/kg), iv dosing; for F: oral bioavailability; for AUC(0-t) / half-life / Vd: rat, plasma; for Vd: read-out: Vss. The protocol:
The LC/MS/MS system used in the analysis consists of an Agilent 1200 Series vacuum degasser, binary pump, well-plate autosampler, thermostatted column compartment, the Agilent G6430 Triple Quadrupole Mass Spectrometer with an electrosprayionization (ESI) source. Quantitative analysis was carried out using MRM mode. The parameters for MRM transitions are in the Table A.
An Agilent XDB-C18, 2.1×30 mm, 3.5 μM column was used for the analysis. 5 μL of the samples were injected. Analysis condition: The mobile phase was 0.1% formic acid in water (A) and 0.1% formic acid in methanol (B). The flow rate was 0.4 mL/min. And the gradient of Mobile phase was in the Table B.
Alternatively, an Agilent 6330 series LC/MS/MS spectrometer equipped with G1312A binary pumps, a G1367A autosampler and a G1314C UV detector were used in the analysis. An ESI source was used on the LC/MS/MS spectrometer. The analysis was done in positive ion mode as appropriate and the MRM transition for each analyte was optimized using standard solution. A Capcell MP-C18 100×4.6 mm I.D., […] column (Phenomenex, Torrance, Calif., USA) was used during the analysis. The mobile phase was 5 mM ammonia acetate, 0.1% MeOH in water (A): 5 mM ammonia acetate, 0.1% MeOH in acetonitrile (B) (70:30, v/v). The flow rate was 0.6 mL/min. Column was maintained at ambient temperature. 20 μL of the samples were injected.
The compounds disclosed herein are assessed in pharmacokinetic studies in mice, rats, dogs or monkeys. The compounds are administered as a water solution, 2% HPMC+1% TWEEN®80 in water solution, 5% DMSO+5% solution in saline, 4% MC suspension or capsule. For the intravenous administration, the animals are generally given at 1 or 2 mg/kg dose. For the oral (p.o.) dosing, mice and rats are generally given 5 or 10 mg/kg dose, and dogs and monkeys are generally given 10 mg/kg dose. The blood samples (0.3 mL) are drawn at 0.25, 0.5, 1.0, 2.0, 3.0, 4.0, 6.0, 8.0, 12 and 24 h time points or 0.083, 0.25, 0.5, 1.0, 2.0, 4.0, 6.0, 8.0 and 24 h time points and centrifuged at 3,000 or 4000 rpm for 2 to 10 min. The plasma solutions are collected, and stored at −20° C. or −70° C. until analyzed by LC/MS/MS as described above.

Where [4] appears, read: pH 7.4, Human liver microsomes 0.5 mg protein/mL.
Setting [5] is: pH 7.4, Rat liver microsomes 0.5 mg protein/mL.

One may read the IC50 as the concentration at which inhibition is half-maximal. A high value points to weaker potency. For orientation: half-life means how long it takes for the measured level to halve. A higher half-life goes with slow loss. As a reminder, the CLint scaled is a measure of how fast metabolising enzymes remove a compound, apart from limits set by blood flow. For orientation: AUC(0-t) means exposure summed from dosing to a finite time, without extrapolation to infinity. A high value points to more exposure.

Molecules are shown by their SMILES.

JAK1 (h), sequence (P23458 whole entry): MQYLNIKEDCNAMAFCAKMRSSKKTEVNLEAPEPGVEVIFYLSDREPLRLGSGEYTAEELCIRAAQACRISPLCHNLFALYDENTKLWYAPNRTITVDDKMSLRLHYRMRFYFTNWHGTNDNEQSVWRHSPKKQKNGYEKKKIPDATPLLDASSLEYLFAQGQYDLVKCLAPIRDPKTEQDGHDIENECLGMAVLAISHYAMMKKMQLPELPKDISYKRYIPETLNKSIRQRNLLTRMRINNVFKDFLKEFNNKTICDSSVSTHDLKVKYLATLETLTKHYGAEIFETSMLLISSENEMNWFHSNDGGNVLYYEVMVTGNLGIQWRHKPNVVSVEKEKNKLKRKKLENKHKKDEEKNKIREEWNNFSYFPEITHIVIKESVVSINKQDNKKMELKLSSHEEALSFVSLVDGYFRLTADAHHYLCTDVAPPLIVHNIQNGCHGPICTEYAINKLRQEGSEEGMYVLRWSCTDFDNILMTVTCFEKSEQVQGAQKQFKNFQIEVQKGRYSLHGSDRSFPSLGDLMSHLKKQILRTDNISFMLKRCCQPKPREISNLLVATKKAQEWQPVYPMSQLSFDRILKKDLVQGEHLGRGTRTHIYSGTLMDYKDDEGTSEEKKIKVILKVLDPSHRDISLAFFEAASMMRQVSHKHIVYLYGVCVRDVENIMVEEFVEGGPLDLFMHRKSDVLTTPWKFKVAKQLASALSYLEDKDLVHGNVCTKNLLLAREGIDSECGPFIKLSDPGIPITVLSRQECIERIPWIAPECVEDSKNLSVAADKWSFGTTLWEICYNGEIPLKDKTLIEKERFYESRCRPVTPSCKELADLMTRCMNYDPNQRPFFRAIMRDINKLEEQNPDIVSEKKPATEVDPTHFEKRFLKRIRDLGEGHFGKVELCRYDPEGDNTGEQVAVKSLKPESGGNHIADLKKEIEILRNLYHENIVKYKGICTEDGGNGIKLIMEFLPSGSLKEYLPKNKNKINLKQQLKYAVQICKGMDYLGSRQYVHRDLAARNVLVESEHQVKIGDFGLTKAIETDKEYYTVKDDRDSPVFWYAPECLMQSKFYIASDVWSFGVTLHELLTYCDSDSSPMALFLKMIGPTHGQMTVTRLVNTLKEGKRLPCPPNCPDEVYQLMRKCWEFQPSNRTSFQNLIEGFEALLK
JAK2 (h), sequence (O60674 whole entry): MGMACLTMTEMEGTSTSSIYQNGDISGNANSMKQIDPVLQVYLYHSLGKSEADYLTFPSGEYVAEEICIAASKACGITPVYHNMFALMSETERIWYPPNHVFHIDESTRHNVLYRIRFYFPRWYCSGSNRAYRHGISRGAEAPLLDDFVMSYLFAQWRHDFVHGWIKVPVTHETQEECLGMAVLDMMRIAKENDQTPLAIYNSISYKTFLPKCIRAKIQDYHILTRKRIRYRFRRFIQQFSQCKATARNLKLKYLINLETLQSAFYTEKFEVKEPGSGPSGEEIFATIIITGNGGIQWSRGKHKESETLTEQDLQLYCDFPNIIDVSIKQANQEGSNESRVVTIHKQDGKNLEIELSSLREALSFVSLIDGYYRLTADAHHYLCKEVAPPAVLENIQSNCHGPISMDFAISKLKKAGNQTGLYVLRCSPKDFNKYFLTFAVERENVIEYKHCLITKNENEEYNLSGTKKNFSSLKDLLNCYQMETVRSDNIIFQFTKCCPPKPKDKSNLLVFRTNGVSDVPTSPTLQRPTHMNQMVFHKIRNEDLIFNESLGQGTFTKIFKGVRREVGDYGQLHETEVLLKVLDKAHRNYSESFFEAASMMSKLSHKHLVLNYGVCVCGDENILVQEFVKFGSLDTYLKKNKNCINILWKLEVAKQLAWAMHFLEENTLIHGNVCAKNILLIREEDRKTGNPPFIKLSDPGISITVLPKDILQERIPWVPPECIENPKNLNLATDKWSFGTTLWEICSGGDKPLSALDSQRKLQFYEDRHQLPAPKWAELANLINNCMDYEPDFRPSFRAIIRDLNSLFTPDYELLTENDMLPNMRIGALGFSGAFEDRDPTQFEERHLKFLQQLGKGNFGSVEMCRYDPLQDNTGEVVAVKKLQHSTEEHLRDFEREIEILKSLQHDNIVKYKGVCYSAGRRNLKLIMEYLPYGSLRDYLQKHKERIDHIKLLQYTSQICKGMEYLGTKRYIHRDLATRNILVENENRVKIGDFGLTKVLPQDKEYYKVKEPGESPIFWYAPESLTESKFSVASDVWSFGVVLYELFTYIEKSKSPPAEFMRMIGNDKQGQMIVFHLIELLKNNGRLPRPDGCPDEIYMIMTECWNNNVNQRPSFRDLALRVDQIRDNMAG

With `Cn1cc(Nc2ncc(Cl)c(NC3CCC4(CC3)CCN(C(=O)CC#N)CC4)n2)cn1` [Ex. 26, 3-(9-((5-chloro-2-((1-methyl-1H-pyrazol-4-yl)amino)pyrimidin-4-yl)amino)-3-azaspiro[5.5]undecan-3-yl)-3-oxopropanenitrile], the IC50 at JAK1 (h) was found to be 2 nM; on JAK2 (h), 6 nM.
The like results for `CN(c1nc(Nc2cnn(C)c2)ncc1Cl)C1CCC2(CC1)CCN(C(=O)CC#N)CC2` [Ex. 24, 3-(9-((5-chloro-2-((1-methyl-1H-pyrazol-4-yl)amino)pyrimidin-4-yl)(methyl)amino)-3-azaspiro[5.5]undecan-3-yl)-3-oxopropanenitrile] were, in that order, 19 nM and 39 nM.
The like results for `Cn1cc(Nc2ncc(Cl)c(NC3CCC4(CCNC4)CC3)n2)cn1` (single isomer, unassigned) [Ex. 13.3B, 5-chloro-N^2-(1-methyl-1H-pyrazol-4-yl)-N^4-(2-azaspiro[4.5]decan-8-yl)pyrimidine-2,4-diamine] were, in that order, 2 nM and 14 nM.
As to `CN(c1nc(Nc2cnn(C)c2)ncc1Cl)C1CC2CN(C(=O)CC#N)CC2C1` (centres unmarked) [Ex. 69, 3-(5-((5-chloro-2-((1-methyl-1H-pyrazol-4-yl)amino)pyrimidin-4-yl)(methyl)amino)hexahydrocyclopenta[c]pyrrol-2(1H)-yl)-3-oxopropanenitrile], in data set [1] (setting [4]), the half-life at 5 μM amounted to 95.6 min. Also, in data set [1] (pH 7.4, Human liver microsomes), the CLint scaled at 5 μM was 18.2 mL/min/kg. The same compound returned a half-life at 5 μM in data set [2] (setting [5]) of 12.2 min. Further, in data set [2] (pH 7.4, Rat liver microsomes), the CLint scaled at 5 μM is 204 mL/min/kg. Moreover, in data set [3], the “Clearance (CL) after iv dosing” value came to 65.2 mL/min/kg, the F turned out to be 56.2%, the AUC(0-t) worked out at 281 ng·h/mL and the half-life was 28.2 min. In addition, in data set [3], the Vd was determined as 1.19 L/kg. On JAK1 (h), this compound had an IC50 of 15 nM.
Turning to `Cc1c(Nc2ncc(Cl)c(NC3CC4CN(C(=O)CC#N)CC4C3)n2)cnn1C` (centres unmarked) [Ex. 66, 3-(5-((5-chloro-2-((1,5-dimethyl-1H-pyrazol-4-yl)amino)pyrimidin-4-yl)amino)hexahydrocyclopenta[c]pyrrol-2(1H)-yl)-3-oxopropanenitrile], in data set [1] (setting [4]), the half-life at 5 μM amounted to 81.5 min. Moreover, in data set [1] (pH 7.4, Human liver microsomes), the CLint scaled at 5 μM was 21.3 mL/min/kg. Also, the half-life at 5 μM in data set [2] (setting [5]) turned out to be 21.2 min. The CLint scaled at 5 μM in data set [2] (pH 7.4, Rat liver microsomes) was 117 mL/min/kg. For the same compound, in data set [3], the “Clearance (CL) after iv dosing” value is 81.8 mL/min/kg, the F amounted to 21.0%, the AUC(0-t) was found to be 201 ng·h/mL and the half-life was 16.2 min. For the same compound, the Vd in data set [3] worked out at 2.28 L/kg. In addition, at JAK1 (h), the half-maximal inhibitory concentration (IC50) was found to be 7 nM.
Compound `N#CCC(=O)N1CCC2(CCC(Nc3nc(Nc4cnn(CC5CC5)c4)ncc3Cl)CC2)CC1` [Ex. 48, 3-(9-((5-chloro-2-((1-(cyclopropylmethyl)-1H-pyrazol-4-yl)amino)pyrimidin-4-yl)amino)-3-azaspiro[5.5]undecan-3-yl)-3-oxopropanenitrile] came in with a half-life at 5 μM in data set [1] (human, liver microsomes, pH 7.4, Human liver microsomes 0.5 mg protein/mL) of 47.6 min. In data set [1] (human, liver microsomes, pH 7.4, Human liver microsomes), the CLint scaled at 5 μM is 36.5 mL/min/kg. In data set [2] (rat, liver microsomes, pH 7.4, Rat liver microsomes 0.5 mg protein/mL), this compound showed a half-life at 5 μM of 24.3 min. The CLint scaled at 5 μM in data set [2] (rat, liver microsomes, pH 7.4, Rat liver microsomes) is 102 mL/min/kg. For the same compound, in data set [3], the “Clearance (CL) after iv dosing” value was 66.2 mL/min/kg, the F was found to be 13.6%, the AUC(0-t) was 252 ng·h/mL and the half-life is 43.8 min. Besides, the Vd in data set [3] stood at 3.41 L/kg. The IC50 at JAK1 (h) came out at 0.4 nM.
Regarding `Cn1nc(C2CC2)cc1Nc1ncc(Cl)c(NC2CC3CN(C(=O)CC#N)CC3C2)n1` (centres unmarked) [Ex. 56, 3-(5-((5-chloro-2-((3-cyclopropyl-1-methyl-1H-pyrazol-5-yl)amino)pyrimidin-4-yl)amino)hexahydrocyclopenta[c]pyrrol-2(1H)-yl)-3-oxopropanenitrile], in data set [1] (setting [4]), the half-life at 5 μM was determined as 37.6 min. For the same compound, the CLint scaled at 5 μM in data set [1] (pH 7.4, Human liver microsomes) is 46.2 mL/min/kg. This compound yielded a half-life at 5 μM in data set [2] (setting [5]) of 41.4 min. Further, in data set [2] (pH 7.4, Rat liver microsomes), the CLint scaled at 5 μM is 60 mL/min/kg. Moreover, in data set [3], the “Clearance (CL) after iv dosing” value was 36.3 mL/min/kg, the F came to 31.3%, the AUC(0-t) amounted to 459 ng·h/mL and the half-life is 32.4 min. Besides, the Vd in data set [3] turned out to be 0.95 L/kg. Further, the IC50 on JAK1 (h) worked out at 5 nM.
In data set [1] (setting [4]), `N#CCC(=O)N1CC2CC(Nc3nc(Nc4cnn(CC5CC5)c4)ncc3Cl)CC2C1` (centres unmarked) [Ex. 46, 3-(5-((5-chloro-2-((1-(cyclopropylmethyl)-1H-pyrazol-4-yl)amino)pyrimidin-4-yl)amino)hexahydrocyclopenta[c]pyrrol-2(1H)-yl)-3-oxopropanenitrile] returned a half-life at 5 μM of 39.3 min. Further, in data set [1] (pH 7.4, Human liver microsomes), the CLint scaled at 5 μM is 44.2 mL/min/kg. Also, the half-life at 5 μM in data set [2] (setting [5]) came out at 20.6 min. Moreover, in data set [2] (pH 7.4, Rat liver microsomes), the CLint scaled at 5 μM was 121 mL/min/kg. Also, in data set [3], the “Clearance (CL) after iv dosing” value was determined as 68.8 mL/min/kg, the F is 26.0%, the AUC(0-t) worked out at 244 ng·h/mL and the half-life was 28.8 min. Also, the Vd in data set [3] is 1.53 L/kg. Moreover, on JAK1 (h), the IC50 is 0.5 nM.
